In ChEMBL document CHEMBL1201862, “PubChem BioAssay data set” (2004):
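Cultured in 96-well plates, cells were exposed to test compound for 48 hours across five concentrations. Abbreviation: GI50, concentration required for 50% inhibition of growth.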 Active and inactive are the calls of the source. Rule as the data show it: active = GI50 up to about 1.1 µM and inactive = higher.

Experiments:
Assay in all cases: inhibition of tumour cell growth, NCI panel, 48 h
[1] = tested on: 786-0
[2] = tested on: A498
[3] = tested on: BT-549
[4] = tested on: DU-145
[5] = tested on: HCT-15
[6] = tested on: HOP-62
[7] = tested on: HOP-92
[8] = tested on: HT-29
[9] = tested on: MDA-MB-435
[10] = tested on: MOLT-4
[11] = tested on: NCI-H522
[12] = tested on: NCI/ADR-RES
[13] = tested on: OVCAR-3
[14] = tested on: RXF 393
[15] = tested on: SK-MEL-2
[16] = tested on: SN12C
[17] = tested on: SNB-19
[18] = tested on: T47D
[19] = tested on: UACC-62

Row | SMILES | GI50 [1] | GI50 [2] | GI50 [3] | GI50 [4] | GI50 [5] [µM] | GI50 [6] | GI50 [7] | GI50 [8] | GI50 [9] | GI50 [10] | GI50 [11] | GI50 [12] | GI50 [13] | GI50 [14] | GI50 [15] | GI50 [16] | GI50 [17] | GI50 [18] | GI50 [19]
1 | COc1ccnc2c1C(=O)c1nc3ccccc3c3ccnc-2c13 | 0.221 µM (active) | 0.0859 µM (active) | 0.397 µM (active) | 0.0479 µM (active) | < 0.01 | 0.125 µM (active) | 0.342 µM (active) | 0.0571 µM (active) | 0.396 µM (active) | 1.42 µM (inactive) | 0.0375 µM (active) | 0.0713 µM (active) | 0.0353 µM (active) | 0.231 µM (active) | 0.789 µM (active) | 0.112 µM (active) | 0.182 µM (active) | 0.291 µM (active) | 0.136 µM (active)
2 | O=C1CCCC1C(=O)Nc1ccc2ccccc2c1 (stereo not given) | > 100 µM (inactive) | > 100 µM (inactive) | > 100 µM (inactive) | > 100 µM (inactive) | > 100 | > 100 µM (inactive) | > 100 µM (inactive) | 55.7 µM (inactive) | > 100 µM (inactive) | 36.2 µM (inactive) | 49 µM (inactive) | > 100 µM (inactive) | > 100 µM (inactive) | 44.5 µM (inactive) | > 100 µM (inactive) | > 100 µM (inactive) | > 100 µM (inactive) | 62.5 µM (inactive) | > 100 µM (inactive)
3 | O=C(O)CC(CC(=O)O)n1cccc1 | > 100 µM (inactive) | > 100 µM (inactive) | > 100 µM (inactive) | > 100 µM (inactive) | > 100 | > 100 µM (inactive) | > 100 µM (inactive) | > 100 µM (inactive) | > 100 µM (inactive) | > 100 µM (inactive) | > 100 µM (inactive) | > 100 µM (inactive) | > 100 µM (inactive) | > 100 µM (inactive) | > 100 µM (inactive) | > 100 µM (inactive) | > 100 µM (inactive) | > 100 µM (inactive) | > 100 µM (inactive)
4 | O=C(O)c1c2c(cc3c1CC1(Cc4ccccc4C1=O)C3)CCC2 (stereo not given) | 47.5 µM (inactive) | 33 µM (inactive) | 33 µM (inactive) | 64 µM (inactive) | 14.8 | 64.7 µM (inactive) | 25.5 µM (inactive) | 14.8 µM (inactive) | 3.69 µM (inactive) | 11.4 µM (inactive) | 22.1 µM (inactive) | 28.7 µM (inactive) | 26.1 µM (inactive) | 25.8 µM (inactive) | 19 µM (inactive) | 46.5 µM (inactive) | 47 µM (inactive) | 32.5 µM (inactive) | 21.8 µM (inactive)
5 | OCCCc1ccc2c(c1)[C@H](CO)[C@@H](c1ccc(O)cc1)O2 | > 100 µM (inactive) | > 100 µM (inactive) | 20.4 µM (inactive) | > 100 µM (inactive) | > 100 | > 100 µM (inactive) | > 100 µM (inactive) | > 100 µM (inactive) | 69.3 µM (inactive) | 19.5 µM (inactive) | > 100 µM (inactive) | > 100 µM (inactive) | > 100 µM (inactive) | > 100 µM (inactive) | > 100 µM (inactive) | > 100 µM (inactive) | > 100 µM (inactive) | 39.2 µM (inactive) | 51.9 µM (inactive)
6 | O=[N+]([O-])c1cc(Cl)ccc1Sc1ccccc1 | > 100 µM (inactive) | > 100 µM (inactive) | 81.5 µM (inactive) | > 100 µM (inactive) | 72.3 | > 100 µM (inactive) | 42.2 µM (inactive) | 46.8 µM (inactive) | > 100 µM (inactive) | 56.1 µM (inactive) | > 100 µM (inactive) | > 100 µM (inactive) | > 100 µM (inactive) | 80.2 µM (inactive) | 44.8 µM (inactive) | 77.4 µM (inactive) | > 100 µM (inactive) | 69.5 µM (inactive) | > 100 µM (inactive)
7 | COc1ccc(/C=C2\C[C@H]3[C@@H]4CCC5=C[C@@H](N6CCCC6)CC[C@]5(C)[C@H]4CC[C@]3(C)[C@H]2O)cc1 | 1.53 µM (inactive) | 1.61 µM (inactive) | 5.85 µM (inactive) | 4.91 µM (inactive) | 1.4 | 1.66 µM (inactive) | 2.49 µM (inactive) | 0.728 µM (active) | 1.93 µM (inactive) | 2.86 µM (inactive) | 2.53 µM (inactive) | 4.39 µM (inactive) | 2.64 µM (inactive) | 1.52 µM (inactive) | 1.88 µM (inactive) | 4.8 µM (inactive) | 4.61 µM (inactive) | 4.56 µM (inactive) | 1.78 µM (inactive)
8 | CN(C)c1ccc(/C=C(\NC(=O)c2ccccc2)C(=O)NC(CC(=O)O)C(=O)O)cc1 (stereo not given) | 41.9 µM (inactive) | > 100 µM (inactive) | > 100 µM (inactive) | > 100 µM (inactive) | > 100 | 22.9 µM (inactive) | > 100 µM (inactive) | > 100 µM (inactive) | > 100 µM (inactive) | > 100 µM (inactive) | 17.7 µM (inactive) | 43.7 µM (inactive) | 52.7 µM (inactive) | > 100 µM (inactive) | > 100 µM (inactive) | > 100 µM (inactive) | > 100 µM (inactive) | > 100 µM (inactive) | 82 µM (inactive)
9 | COC12OC3CC4(C)C(=CC3OC(OC(C)C1O)C2O)CCC1C4CCC2(C)C(c3ccc(=O)oc3)CCC12O (stereo not given) | 0.00134 µM (active) | 0.00309 µM (active) | 0.00143 µM (active) | 0.00129 µM (active) | 0.00216 | 0.00137 µM (active) | 0.00535 µM (active) | 0.00139 µM (active) | 0.00216 µM (active) | 0.00105 µM (active) | < 0.001 µM (active) | 0.00151 µM (active) | 0.00155 µM (active) | 0.00234 µM (active) | 0.00205 µM (active) | < 0.001 µM (active) | 0.00213 µM (active) | 0.00227 µM (active) | 0.00233 µM (active)
10 | O=C(/C=C/c1ccco1)c1cccc(C(=O)/C=C/c2ccco2)n1 | 3.4 µM (inactive) | > 72.1 µM (inactive) | 13 µM (inactive) | 24.9 µM (inactive) | 4.92 | 17.1 µM (inactive) | 32.9 µM (inactive) | 5.07 µM (inactive) | 48.5 µM (inactive) | 2.19 µM (inactive) | 3.9 µM (inactive) | 24.2 µM (inactive) | 19.4 µM (inactive) | 25.5 µM (inactive) | 25.5 µM (inactive) | 12.6 µM (inactive) | 8.41 µM (inactive) | 6.17 µM (inactive) | 27.8 µM (inactive)
11 | C=CCN1C(=O)/C(=C/c2ccccc2)N=C1SC1OC(COC(C)=O)C(OC(C)=O)C(OC(C)=O)C1OC(C)=O (stereo not given) | 23.9 µM (inactive) | 38.1 µM (inactive) | 28.6 µM (inactive) | 26.6 µM (inactive) | 28.1 | 37.8 µM (inactive) | 23.7 µM (inactive) | 32.7 µM (inactive) | 26.9 µM (inactive) | 19.9 µM (inactive) | 16.3 µM (inactive) | 26.2 µM (inactive) | 19.3 µM (inactive) | 13.1 µM (inactive) | 18.5 µM (inactive) | 24.2 µM (inactive) | 29.6 µM (inactive) | 27.2 µM (inactive) | 14.4 µM (inactive)
12 | CC(C)(C)OC(=O)N/N=C(/N)Cc1ccccc1 | > 100 µM (inactive) | > 100 µM (inactive) | > 100 µM (inactive) | > 100 µM (inactive) | > 100 | > 100 µM (inactive) | > 100 µM (inactive) | > 100 µM (inactive) | > 100 µM (inactive) | > 100 µM (inactive) | > 100 µM (inactive) | > 100 µM (inactive) | > 100 µM (inactive) | > 100 µM (inactive) | > 100 µM (inactive) | > 100 µM (inactive) | > 100 µM (inactive) | > 100 µM (inactive) | > 100 µM (inactive)
13 | Cc1cc(C)c(S(=O)(=O)N[C@@H](/C=C(\Br)CO)C(C)C)c(C)c1 | 30.5 µM (inactive) | 20.7 µM (inactive) | 40.3 µM (inactive) | 34.5 µM (inactive) | 37.8 | 56.5 µM (inactive) | 23.1 µM (inactive) | 31 µM (inactive) | 17.3 µM (inactive) | 24.2 µM (inactive) | 17.7 µM (inactive) | 36.5 µM (inactive) | 21.2 µM (inactive) | 23.4 µM (inactive) | 16.1 µM (inactive) | 16.8 µM (inactive) | 56 µM (inactive) | 25.9 µM (inactive) | 13.2 µM (inactive)
14 | O=[N+]([O-])C(=C(Cl)Cl)C(Cl)=C(Cl)Cl | 0.0895 µM (active) | 3.63 µM (inactive) | 0.124 µM (active) | 8.85 µM (inactive) | 0.156 | 8.22 µM (inactive) | 0.279 µM (active) | 0.141 µM (active) | 0.314 µM (active) | 0.0166 µM (active) | < 0.01 µM (active) | 1.36 µM (inactive) | 0.706 µM (active) | 0.0391 µM (active) | 1.68 µM (inactive) | 0.497 µM (active) | 4.6 µM (inactive) | 0.037 µM (active) | 0.433 µM (active)
15 | COc1cc([C@H]2Oc3c(OC)cc(CCCO)cc3[C@@H]2CO)ccc1O [DIHYDRODEHYDRODICONIFERY ALCOHOL] | > 100 µM (inactive) | 50.6 µM (inactive) | 94.4 µM (inactive) | > 100 µM (inactive) | > 100 | > 100 µM (inactive) | 89.5 µM (inactive) | > 100 µM (inactive) | > 100 µM (inactive) | 51.6 µM (inactive) | 69.2 µM (inactive) | > 100 µM (inactive) | > 100 µM (inactive) | > 100 µM (inactive) | > 100 µM (inactive) | > 100 µM (inactive) | > 100 µM (inactive) | 30.3 µM (inactive) | 55.3 µM (inactive)
